US10787483B2, “Antimicrobial peptidomimetics” (Agency for Science, Technology and Research, priority 2014, dated 2020)
In brackets after ≈: the same amount, converted by molar mass. Where two headings read alike, the source gives them in different places. Square brackets hold non-standard residues; d marks the D form. Peptide text beside a SMILES is read from it. * marks the point of attachment. ξ: configuration not given here. Phe(4-guanidino) = N=C(N)Nc1ccc(C[C@H](N)C(=O)O)cc1; Bip = N[C@@H](Cc1ccc(-c2ccccc2)cc1)C(=O)O; ξpGlu = O=C1CCC(C(=O)O)N1; Agmatine = N=C(N)NCCCCN*; Orn = NCCC[C@H](N)C(=O)O

How the values were obtained:
[1] = system: MRSA (ATCC 33591); test: MIC determination by broth microdilution vs. MRSA (ATCC 33591); assay type: cell-based, Staphylococcus aureus; details: for MIC: Staphylococcus aureus
Protocol: (§1) Using a sterile loop, 3 to 5 isolated colonies of bacteria of the same morphological appearance are selected from the overnight agar plate. The colonies are transferred into a conical flask containing 5 mL of liquid medium (i.e. Mueller-Hinton broth). The broth is incubated at 37° C. in a shaker at 220 rpm until it reaches a turbidity that is equal to the turbidity of a McFarland Standard 0.5 (correspond to 1×10^8 cfu/mL). This culture growth step will require 1-2 hours depending on the bacteria tested.
During this pause period, an antibacterial dilution is prepared. Therefore an antibacterial stock solution is diluted in Mueller-Hinton broth. The concentration of DMSO is kept at 5%. 100 μL of the antibacterial solution are dispensed into the first well of a row. 50 μL of medium containing 0.5% of DMSO are dispensed to the rest of the wells. A 2-fold serial dilution is achieved by transferring 50 μL from the first well (containing the highest concentration of antibacterial) into the second well, and continuing like this until the 10th well in the row. The final 50 μL are discarded so that every well has 50 μL of each antibacterial dilution.
The 11th well was used as the growth control well (medium with bacterial inoculums, no antibacterial) while the 12th well was the sterility control well (medium only).
The bacterial suspension prepared above is mixed thoroughly, and diluted by a factor of 1:100 in the sterile medium. Each well and the growth control well is inoculated with 50 μL of the bacterial suspension. […] To the sterility control well 50 μL of sterile medium are added in place of the bacterial suspension. 10 μL aliquot from the growth control well is removed immediately after inoculating the plate and pipetted it into a sterile Eppendorf tube holding 990 μL of sterile broth. It is mixed well by vortexing. This suspension is further diluted (1:10) by pipetting 100 μL into 900 μL of sterile broth and mixing it well. 100 μL of each of the two dilutions are plated onto two different antibacterial-free agar plates. A sterile cell spreader is used to spread the liquid. Then the plate is sealed with a transparent adhesive film. The microtiter plate and agar plates are incubated at 37° C. for 16-20 hours or until satisfactory growth is obtained. The colonies on the agar plate are counted the next day to verify that the right number of cfu was inoculated. The plate is agitated in the SpectraMax spectrophotometer for 90 s and the OD600 for all the wells in the plate is recorded.

[2] = system: S. aureus (ATCC 29213); test: Bactericidal activity at MIC after dilution of the antibacterial (FIG. 2); assay type: cell-based, Staphylococcus aureus; details: treatment at its MIC
[3] = system: S. aureus (ATCC 29213); test: MIC determination by broth microdilution vs. S. aureus (ATCC 29213); assay type: cell-based; details: Staphylococcus aureus
Protocol: as §1
(§2) During this pause period, an antibacterial dilution is prepared. Therefore an antibacterial stock solution is diluted in Mueller-Hinton broth. The concentration of DMSO is kept at 5%. 100 μL of the antibacterial solution are dispensed into the first well of a row. 50 μL of medium containing 0.5% of DMSO are dispensed to the rest of the wells. […]
(§3) The bacterial suspension prepared above is mixed thoroughly, and diluted by a factor of 1:100 in the sterile medium. […] The colonies on the agar plate are counted the next day to verify that the right number of cfu was inoculated. The plate is agitated in the SpectraMax spectrophotometer for 90 s and the OD600 for all the wells in the plate is recorded.

[4] = system: Strep. pyogenes (ARC 838); test: MIC determination by broth microdilution vs. Strep. pyogenes (ARC 838); assay type: cell-based; details: Streptococcus pyogenes
Protocol: as §1, §2, §3

[5] = system: S. aureus (RN 4220); test: MIC determination by broth microdilution vs. S. aureus (RN 4220); assay type: cell-based; details: Staphylococcus aureus
Protocol: as §1, §2, §3

[6] = system: E. faecalis; test: Antibacterial activity on E. faecalis; assay type: cell-based
Protocol: as §1, §2, §3

[7] = system: Strep. pneumoniae (ATCC 49619); test: MIC determination by broth microdilution vs. Strep. pneumoniae (ATCC 49619); assay type: cell-based, Streptococcus pneumoniae
Protocol: as §1, §2, §3

[8] = MRSA (ATCC 33591), read-out: MIC

| SMILES | MIC [1, 8] | also measured |
| --- | --- | --- |
| N=C(N)NCCCCNC(=O)[C@H](Cc1ccc(-c2ccccc2)cc1)NC(=O)[C@H](CCCNC(=N)N)NC(=O)[C@@H](N)Cc1ccc(-c2ccccc2)cc1 [Compound 1a, Bip-Arg-Bip-agmantine] |  | MIC value compared with Linezolid and Daptomycin ([1]; S. aureus tests (ATCC 33591, RN 4220, ATCC 29123)): lower MIC value; MIC ([1]; MRSA (ATCC 33591), read-out: MIC value): 3.12 µM (≈ 2.29 µg/mL); MIC ([1]; MRSA (ATCC 33591), read-out: MIC(μM) (ATCC 33591)): 3.12 µM (≈ 2.29 µg/mL); mode of action (regrowth after dilution of the antibacterial) [2]: bactericidal mode of action; MIC ([3]; ATCC 29123 / ATCC 29213, S. aureus (ATCC 29123) as printed, read-out: MIC value): 3.12 µM (≈ 2.29 µg/mL); MIC ([3]; ATCC29213, S. aureus (ATCC 29213), read-out: MIC(μM) (ATCC 29213)): 3.12 µM (≈ 2.29 µg/mL); MIC [4]: 6.25 µM (≈ 4.58 µg/mL); MIC [5]: 3.12 µM (≈ 2.29 µg/mL); activity on E. faecalis [6]: showed activity; MIC compared with Daptomycin ([7]; Strep. tests (Strep. pneumoniae ATCC 49619, Strep. pyogenes ARC 838)): at least improvement over Daptomycin; MIC ([7]; Streptococcus pneumoniae, ATCC49619, Strep. pneumoniae (ATCC 49619)): 6.25 µM (≈ 4.58 µg/mL) |
| N=C(N)NCCCCNC(=O)[C@@H](Cc1ccc(-c2ccccc2)cc1)NC(=O)[C@H](CCCNC(=N)N)NC(=O)[C@@H](N)Cc1ccc(-c2ccccc2)cc1 [Compound 2] | 12.5 µM (≈ 9.16 µg/mL) |  |
| N=C(N)NCCCCNC(=O)[C@H](Cc1ccc(-c2ccccc2)cc1)NC(=O)[C@@H](CCCNC(=N)N)NC(=O)[C@@H](N)Cc1ccc(-c2ccccc2)cc1 [Compound 3] | 25 µM (≈ 18.3 µg/mL) |  |
| N=C(N)NCCCCNC(=O)[C@H](Cc1ccc(-c2ccccc2)cc1)NC(=O)[C@H](CCCNC(=N)N)NC(=O)[C@H](N)Cc1ccc(-c2ccccc2)cc1 [Compound 4] | 25 µM (≈ 18.3 µg/mL) |  |
| N=C(N)NCCC[C@H](NC(=O)[C@@H](N)Cc1ccc(-c2ccccc2)cc1)C(=O)N[C@@H](Cc1ccc(-c2ccccc2)cc1)C(=O)NCCCCNC(N)=O [Compound 5] | 25 µM (≈ 18.3 µg/mL) |  |
| N=C(N)NCCC[C@H](NC(=O)[C@@H](N)Cc1ccc(-c2ccccc2)cc1)C(=O)N[C@@H](Cc1ccc(-c2ccccc2)cc1)C(=O)N[C@H]1CC[C@@H](NC(=N)N)CC1 [Compound 6] | 6.25 µM (≈ 4.74 µg/mL) |  |
| N=C(N)NCCC[C@H](NC(=O)[C@@H](N)Cc1ccc(-c2ccccc2)cc1)C(=O)N[C@@H](Cc1ccc(-c2ccccc2)cc1)C(=O)N[C@H]1CC[C@H](NC(=N)N)CC1 [Compound 7] | 6.25 µM (≈ 4.74 µg/mL) |  |
| N=C(N)NCCCCNC(=O)[C@H](Cc1ccccc1)NC(=O)[C@H](CCCNC(=N)N)NC(=O)[C@@H](N)Cc1ccc(-c2ccccc2)cc1 [Compound 8] (H-[Bip]-Arg-Phe-Agmatine) | 25 µM (≈ 16.4 µg/mL) |  |
| N=C(N)NCCCCNC(=O)[C@H](Cc1ccc2ccccc2c1)NC(=O)[C@H](CCCNC(=N)N)NC(=O)[C@@H](N)Cc1ccc(-c2ccccc2)cc1 [Compound 9] | 50 µM (≈ 35.3 µg/mL) |  |
| N=C(N)NCCCCNC(=O)CN(Cc1ccc(-c2ccccc2)cc1)C(=O)[C@H](CCCNC(=N)N)NC(=O)[C@@H](N)Cc1ccc(-c2ccccc2)cc1 [Compound 10] |  | MIC [1]: 3.12 µM (≈ 2.29 µg/mL) |
| N=C(N)NCCCCNC(=O)CN(Cc1ccc(-c2ccccc2)cc1)C(=O)[C@@H](CCCNC(=N)N)NC(=O)[C@H](N)Cc1ccc(-c2ccccc2)cc1 [Compound 11] |  | MIC [1]: 12.5 µM (≈ 9.16 µg/mL) |
| N=C(N)NCCCCNC(=O)[C@H](Cc1ccc(Cl)cc1)NC(=O)[C@H](CCCNC(=N)N)NC(=O)[C@@H](N)Cc1ccc(-c2ccccc2)cc1 [Compound 12] | 12.5 µM (≈ 8.64 µg/mL) |  |
| N=C(N)NCCCCNC(=O)[C@H](Cc1ccc(-c2ccccc2)cc1)NC(=O)[C@H](CCCCN)NC(=O)[C@@H](N)Cc1ccc(-c2ccccc2)cc1 [Compound 13] (H-[Bip]-Lys-[Bip]-Agmatine) | 6.25 µM (≈ 4.41 µg/mL) |  |
| N=C(N)NCCCCNC(=O)[C@H](Cc1ccc(-c2ccccc2)cc1)NC(=O)[C@H](CCCN)NC(=O)[C@@H](N)Cc1ccc(-c2ccccc2)cc1 [Compound 14] (H-[Bip]-[Orn]-[Bip]-Agmatine) | 12.5 µM (≈ 8.64 µg/mL) |  |
| C/N=C(/NC)NCCC[C@H](NC(=O)[C@@H](N)Cc1ccc(-c2ccccc2)cc1)C(=O)N[C@@H](Cc1ccc(-c2ccccc2)cc1)C(=O)NCCCCNC(=N)N [Compound 15] | 12.5 µM (≈ 9.51 µg/mL) |  |
| N=C(N)NCCCCNC(=O)[C@H](Cc1ccc(-c2ccccc2)cc1)NC(=O)[C@H](CNC(=N)N)NC(=O)[C@@H](N)Cc1ccc(-c2ccccc2)cc1 [Compound 16] | 25 µM (≈ 17.6 µg/mL) |  |
| N=C(N)NCCCCNC(=O)[C@H](Cc1ccc(-c2ccccc2)cc1)NC(=O)[C@H](Cc1ccc(NC(=N)N)cc1)NC(=O)[C@@H](N)Cc1ccc(-c2ccccc2)cc1 [Compound 17] (H-[Bip]-[Phe(4-guanidino)]-[Bip]-Agmatine) | 6.25 µM (≈ 4.88 µg/mL) |  |
| CN(C(=O)[C@H](CCCNC(=N)N)NC(=O)[C@@H](N)Cc1ccc(-c2ccccc2)cc1)[C@@H](Cc1ccc(-c2ccccc2)cc1)C(=O)NCCCCNC(=N)N [Compound 18] | 6.25 µM (≈ 4.67 µg/mL) |  |
| N=C(N)NCCCCNC(=O)[C@H](Cc1ccc(-c2ccccc2)cc1)NC(=O)[C@H](CCCCNC(=N)N)NC(=O)[C@@H](N)Cc1ccc(-c2ccccc2)cc1 [Compound 19] | 6.25 µM (≈ 4.67 µg/mL) |  |
| N=C(N)NCCCCNC(=O)[C@H](Cc1ccc(-c2ccccc2)cc1)NC(=O)C[C@H](CCCNC(=N)N)NC(=O)[C@@H](N)Cc1ccc(-c2ccccc2)cc1 [Compound 20] | 6.25 µM (≈ 4.67 µg/mL) |  |
| N=C(N)NCCCCNC(=O)[C@H](Cc1ccc(-c2ccccc2)cc1)NC(=O)CN(CCCNC(=N)N)C(=O)[C@@H](N)Cc1ccc(-c2ccccc2)cc1 [Compound 21] | 6.25 µM (≈ 4.58 µg/mL) |  |
| N=C(N)NCCCCNC(=O)[C@H](Cc1ccc(-c2ccccc2)cc1)NC(=O)[C@H](CCCNC(=N)N)NC(=O)[C@@H](N)Cc1ccc(Cl)cc1 [Compound 22] | 25 µM (≈ 17.3 µg/mL) |  |
| CC(=O)N[C@@H](Cc1ccc(-c2ccccc2)cc1)C(=O)N[C@@H](CCCNC(=N)N)C(=O)N[C@@H](Cc1ccc(-c2ccccc2)cc1)C(=O)NCCCCNC(=N)N [Compound 23] | 12.5 µM (≈ 9.69 µg/mL) |  |
| N=C(N)NCCCCNC(=O)[C@H](Cc1ccc(-c2ccccc2)cc1)NC(=O)[C@H](CCCNC(=N)N)NC(=O)[C@H](Cc1ccc(-c2ccccc2)cc1)NC(=O)C1CCC(=O)N1 (stereo partly shown) [Compound 24] ([ξpGlu][Bip]R[Bip]-Agmatine) | 12.5 µM (≈ 10.6 µg/mL) |  |
| CCCCCCCCCC(=O)N[C@@H](Cc1ccc(-c2ccccc2)cc1)C(=O)N[C@@H](CCCNC(=N)N)C(=O)N[C@@H](Cc1ccc(-c2ccccc2)cc1)C(=O)NCCCCNC(=N)N [Compound 25] | 12.5 µM (≈ 11.1 µg/mL) |  |
| CC(C)(C)c1ccc(-c2ccc(C[C@H](NC(=O)[C@H](CCCNC(=N)N)NC(=O)[C@@H](N)Cc3ccc(-c4ccc(C(C)(C)C)cc4)cc3)C(=O)NCCCCNC(=N)N)cc2)cc1 [Compound 26] | 12.5 µM (≈ 10.6 µg/mL) |  |
| N=C(N)NCCCCNC[C@H](Cc1ccc(-c2ccccc2)cc1)NC(=O)[C@H](CCCNC(=N)N)NC(=O)[C@@H](N)Cc1ccc(-c2ccccc2)cc1 [Compound 27] | 6.25 µM (≈ 4.49 µg/mL) |  |
| N=C(N)NCCCCNC(=O)[C@H](Cc1ccc(-c2ccccc2)cc1)NC[C@H](CCCNC(=N)N)NC(=O)[C@@H](N)Cc1ccc(-c2ccccc2)cc1 [Compound 28] | 12.5 µM (≈ 8.99 µg/mL) |  |
| N=C(N)NCCCCNC(=O)[C@H](Cc1ccc(-c2ccccc2)cc1)NC(=O)[C@H](CCCNC(=N)N)NC[C@@H](N)Cc1ccc(-c2ccccc2)cc1 [Compound 29] | 3.12 µM (≈ 2.25 µg/mL) |  |
| CC(=O)NC[C@H]1CN(c2ccc(N3CCOCC3)c(F)c2)C(=O)O1 [Linezolid, reference compound] |  | mode of action (regrowth after dilution of the antibacterial) [2]: bacteriostatic |
